Ki data for twelve compounds are collected here from patent EP2970215B1, “PYRROLIDINE DERIVATIVES, PHARMACEUTICAL COMPOSITIONS CONTAINING THEM, AND THEIR USE IN THERAPY” (AbbVie Deutschland GmbH & Co. KG, priority 2013, dated 2014).

Structures are written as SMILES.

The target in one assay is T1, human GlyT1c transporter (Homo sapiens, UniProt P48067).
T1 construct: expressed in transfected cells; host or cells: CHO cells (recombinant; line hGlyT1c_5_CHO is named for the uptake assay)
T1 sequence (P48067 1-706): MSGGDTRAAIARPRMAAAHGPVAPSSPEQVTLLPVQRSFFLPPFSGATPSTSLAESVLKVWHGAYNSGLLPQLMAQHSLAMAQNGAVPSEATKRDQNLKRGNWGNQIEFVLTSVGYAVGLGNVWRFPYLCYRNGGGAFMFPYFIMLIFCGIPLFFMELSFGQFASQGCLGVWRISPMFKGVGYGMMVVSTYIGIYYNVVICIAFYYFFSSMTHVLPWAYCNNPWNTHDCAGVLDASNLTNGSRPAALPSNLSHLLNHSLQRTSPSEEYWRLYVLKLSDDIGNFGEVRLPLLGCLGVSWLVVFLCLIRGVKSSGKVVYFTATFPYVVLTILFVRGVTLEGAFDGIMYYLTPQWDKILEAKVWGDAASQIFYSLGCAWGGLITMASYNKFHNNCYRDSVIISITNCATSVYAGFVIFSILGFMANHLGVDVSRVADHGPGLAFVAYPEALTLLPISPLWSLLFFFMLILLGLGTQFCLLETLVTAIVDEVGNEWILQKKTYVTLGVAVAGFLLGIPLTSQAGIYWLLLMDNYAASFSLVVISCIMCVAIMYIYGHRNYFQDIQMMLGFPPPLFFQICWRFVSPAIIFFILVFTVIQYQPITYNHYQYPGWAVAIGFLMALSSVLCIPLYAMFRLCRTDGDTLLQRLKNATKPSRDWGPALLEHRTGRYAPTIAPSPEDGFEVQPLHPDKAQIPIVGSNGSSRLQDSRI
The assay is described as follows: Radioligand binding assay using recombinant CHO cell membranes expressing human GlyT1. To be noted: radioligand binding to human GlyT1c transporter-expressing membranes. From the text: 2. Radioligand binding assays using recombinant CHO cell membranes expressing human GlyT1: […]
A word on the Ki: it is the equilibrium dissociation constant of an inhibitor or competing ligand from its target. As for `Cc1c(C#N)cccc1N[C@@H]1CN(S(=O)(=O)c2cn(C)cn2)C[C@H]1c1ccccc1` (relative stereo) [Example 83, 2-methyl-3-({trans-1-[(1-methyl-1H-imidazol-4-yl)sulfonyl]-4-phenylpyrrolidin-3-yl}amino)benzonitrile], the inhibition constant (Ki) was at most 1 µM.

Take `CCCCCCO[C@H]1CN(S(=O)(=O)c2cn(C)cn2)C[C@@H]1c1ccc(F)cc1` [Example 625, 4-{[(3S,4R)-3-(4-fluorophenyl)-4-(hexyloxy)pyrrolidin-1-yl]sulfonyl}-1-methyl-1H-imidazole]: the Ki is at most 0.01 µM.

As to `CC(C)c1cc(N[C@H]2CN(S(=O)(=O)c3cn(C)cn3)C[C@@H]2c2ccc(F)cc2)ncn1` [Example 614, N-{(3R,4S)-4-(4-fluorophenyl)-1-[(1-methyl-1H-imidazol-4-yl)sulfonyl]pyrrolidin-3-yl}-6-(propan-2-yl)pyrimidin-4-amine], the inhibition constant (Ki) was at most 1 µM.

`Cn1cnc(S(=O)(=O)N2C[C@@H](COc3ccc(F)cc3)[C@H](c3ccc(F)cc3)C2)c1` (relative stereo) [Example 348, 4-{[Trans-3-[(4-fluorophenoxy)methyl]-4-(4-fluorophenyl)pyrrolidin-1-yl]sulfonyl}-1-methyl-1H-imidazole]: the Ki was at most 0.1 µM.

As for `Cn1cnc(S(=O)(=O)N2C[C@H](Nc3ncnc4[nH]ccc34)[C@@H](c3ccccc3)C2)c1` [Example 406, N-{(3R,4S)-1-[(1-methyl-1H-imidazol-4-yl)sulfonyl]-4-phenylpyrrolidin-3-yl}-7H-pyrrolo[2,3-d]pyrimidin-4-amine], the Ki is at most 10 µM. Same read-out and setting: to `Cc1ccccc1-c1cc(N[C@H]2CN(S(=O)(=O)c3cn(C)cn3)C[C@@H]2c2ccc(F)cc2)ncn1` [Example 723, N-{(3R,4S)-4-(4-fluorophenyl)-1-[(1-methyl-1H-imidazol-4-yl)sulfonyl]pyrrolidin-3-yl}-6-(2-methylphenyl)pyrimidin-4-amine] belongs at most 0.1 µM; to `Cn1cnc(S(=O)(=O)N2C[C@@H](Nc3cccc(F)c3F)[C@H](c3ccccc3)C2)c1` (relative stereo) [Example 231, trans-N-(2,3-difluorophenyl)-1-[(1-methyl-1H-imidazol-4-yl)sulfonyl]-4-phenylpyrrolidin-3-amine], at most 1 µM. Take `CCC(CCCN[C@H]1CN(S(=O)(=O)c2cn(C)cn2)C[C@@H]1c1ccccc1)OC` (stereo partly drawn) [Example 648, (3R,4S)-N-(4-methoxyhexyl)-1-[(1-methyl-1H-imidazol-4-yl)sulfonyl]-4-phenylpyrrolidin-3-amine]: the Ki was at most 10 µM.

`Cc1cc(S(=O)(=O)N2CC(Nc3ccc(F)c(F)c3)C(c3ccccc3)C2)c(C)s1` (stereo not drawn) [Example 517, N-(3,4-difluorophenyl)-1-[(2,5-dimethylthiophen-3-yl)sulfonyl]-4-phenylpyrrolidin-3-amine]: the Ki was at most 10 µM. The same measure, in the same setting: to `Cc1cccc(N[C@@H]2CN(S(=O)(=O)c3cn(C)cn3)C[C@H]2C2CCCOC2)c1` (relative stereo) [Example 781, trans-1-[(1-methyl-1H-imidazol-4-yl)sulfonyl]-N-(3-methylphenyl)-4-(tetrahydro-2H-pyran-3-yl)pyrrolidin-3-amine] belongs at most 10 µM; to `Cn1cnc(S(=O)(=O)N2C[C@@H](Nc3cccc(C(F)(F)F)c3F)[C@H](c3ccccc3)C2)c1` (relative stereo) [Example 222, trans-N-[2-fluoro-3-(trifluoromethyl)phenyl]-1-[(1-methyl-1H-imidazol-4-yl)sulfonyl]-4-phenylpyrrolidin-3-amine], at most 1 µM.

The assay is the same for the next values; noted with them: radioligand binding, recombinant CHO cell membranes expressing human GlyT1c.
With `Cn1cnc(S(=O)(=O)N2C[C@@H](Nc3ccc(Cl)c(C(F)(F)F)c3)[C@H](C3CCOC3)C2)c1` (relative stereo) [Example 833, trans-N-[4-chloro-3-(trifluoromethyl)phenyl]-1-[(1-methyl-1H-imidazol-4-yl)sulfonyl]-4-(tetrahydrofuran-3-yl)pyrrolidin-3-amine], the inhibition constant (Ki) was at most 10 µM.
